Test results taken from the METLIN SMRT retention time set (Domingo-Almenara et al. 2019).

Experiment: gradient 5% acetonitrile 3 min, to 50% in 2 min, to 85% in 15 min, held 3 min, 100 µL/min
Details: column: Zorbax Extend-C18 2.1 x 50 mm; eluents: water / acetonitrile, 0.1% formic acid
Summary of the method: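 The mobile phases were water and acetonitrile, each with 0.1% formic acid, pumped at 100 μL/min through a Zorbax Extend-C18 column (2.1 × 50 mm, 1.8 μm). Pure standards were injected as mixtures of ~100 molecules and detected by a quadrupole time-of-flight mass spectrometer in positive and negative ionization mode. Retention time came from computationally picked adduct peaks, each inspected by hand.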

| RP-LC retention time [s] | SMILES |
| --- | --- |
| 1020 | O=S(=O)(NC1CCCCC1)c1ccc(-c2nnc(C3CCCC3)o2)o1 |
| 640 | O=C(Nc1cccc(-c2nnc3n2CCCC3)c1)c1ccco1 |
| 1050 | CCN1C(=O)C2(CCN(S(=O)(=O)c3ccc(C)cc3)CC2)c2ccccc21 |
| 884 | O=C(c1ccc(OC(F)(F)F)cc1)N1C[C@@H]2C[C@H]1C[C@@H]2NS(=O)(=O)c1ccccc1 |
| 888 | COc1ccc(-c2noc(-c3nc(C)no3)n2)c(OC)c1 |
| 610 | Oc1ccc(-c2nc3ncccn3c2Nc2ccc3c(c2)OCCO3)cc1 |
| 655 | O=C(CCc1nc(-c2ccc(N3CCCC3)cc2)no1)NCCCN1CCOCC1 |
| 926 | CCCn1cc(S(=O)(=O)Nc2cc(F)ccc2C)c2cccnc21 |
| 738 | CCc1nncn1C1CCN(S(=O)(=O)c2ccc(C)cc2C)CC1 |
| 753 | O=C(Nc1c(F)cccc1F)N1CC(c2nc(Cc3ccccc3)no2)C1 |
| 1090 | Cc1ccccc1-c1noc(C2CC(=O)N(c3ccc(Cl)cc3)C2)n1 (centres undefined) |
| 1330 | CCn1cc(-c2nc(C(=O)Nc3ccccc3Cl)cs2)c2cccnc21 |
| 791 | CCc1onc(C)c1C1CCCN1C(=O)Nc1cccc(OC)c1 (centres undefined) |
| 605 | CN1C[C@@H]2C(=O)N(CCc3ccccc3)C(=O)[C@@H]2C1 |
| 1270 | CC1(C)CCCC2(C)C3=C(CCC12)C(=O)OC3 (centres undefined) |
| 631 | COc1ccc(NC(=O)c2cnc(N3CCN(C4CCCCC4)CC3)nc2N)cc1 |
| 560 | CN1CCN(CCCNC(=O)Cn2c3ccccc3c3cnn(C)c(=O)c32)CC1 |
| 600 | O=C(NCCc1ccccn1)C1CC(=O)N(c2n[nH]c3cc(Br)ccc23)C1 (centres undefined) |
| 827 | CCCn1cc(CCNC(=O)c2cc(C)ccc2C)c2cccnc21 |
| 1100 | COc1cc(NC(=O)Cn2nc(N3CCCC(C)C3)c3ccccc3c2=O)cc(OC)c1 (centres undefined) |
| 686 | Cc1ccsc1C(=O)N1CCCn2cc(-c3ccccc3)nc21 |
| 705 | CCCc1c(C(=O)O)nnn1-c1ccccc1F |

| RP-LC retention time [s] | SMILES |
| --- | --- |
| 917 | CCC1Oc2ccc(S(=O)(=O)N3CCC(C(=O)N(C)C4CCCCC4)CC3)cc2NC1=O (centres undefined) |
| 956 | CCc1nc2cc(-c3noc(Cc4ccc(OC)c(OC)c4)n3)ccc2o1 |
| 594 | c1cc(-c2nc(-c3ccnc(N4CCCC4)c3)no2)ccn1 |
| 1200 | O=c1c2sccc2n(Cc2nc(-c3ccc(C(F)(F)F)cc3)no2)c(=O)n1Cc1ccccc1 |
| 1020 | O=C(O)c1ccccc1Nc1cccc2c1C(=O)c1cccc(Nc3ccccc3C(=O)O)c1C2=O |
| 860 | O=C(Nc1ccc(-n2cnc(C(=O)N3CCC(Cc4ccccc4)CC3)c2)nc1)C1CC1 |
| 1060 | Cc1noc2nc(CCC(=O)N3CCc4ccccc43)nc(N3CCCCCC3)c12 |
| 601 | CCNc1ncnc2sc3c(c12)CCN(C(=O)COC)C3 |
| 555 | O=C(CN1CCN(c2ccccn2)CC1)Nc1nccs1 |
| 628 | CCN1CCN(Cc2ccc(-c3cc4c(N[C@H](C)c5ccccc5)ncnc4[nH]3)cc2)CC1 |
| 639 | Cc1sc2ccn(CC(C)C)c(=O)c2c1C(=O)NCCN1CCCCC1 |
| 687 | O=C(COc1ccc(Cl)cc1Cl)N1CCN(c2ccc3nncn3n2)CC1 |
| 750 | O=C(c1ccc(OCC2CCCN2C(=O)C2CCCC2)cc1)N1CCOCC1 (centres undefined) |
| 935 | CCS(=O)(=O)N1CC(=O)N(c2cc(C)cc(C)c2)C(C)(C(=O)NC2CCCCCC2)C1 (centres undefined) |
| 1220 | CCCOc1nc2ccccc2nc1N1CCCC(C(=O)NCc2cccc(C)c2)C1 (centres undefined) |
| 939 | Cc1cc(C)c(C)c(S(=O)(=O)N(C)C)c1C |
| 766 | CCOCC(=O)N1CC(c2nc(-c3ccccc3)no2)C2(CCOCC2)C1 (centres undefined) |
| 954 | Cc1ccc(S(=O)(=O)N2CCC(n3c(-c4ccco4)nc4cccnc43)C2)cc1F (centres undefined) |
| 604 | CN(C)c1nccnc1OC1CCN(C(=O)c2ccn[nH]2)C1 (centres undefined) |
| 577 | CC(C)NC(=O)c1ccc2c(c1)nc(CN1CCN(C(=O)NC3CCCCC3)CC1)n2C |
| 604 | COc1ccc(S(=O)(=O)N2CCCC(C(=O)NCc3ccccn3)C2)cc1OC (centres undefined) |
| 928 | Cc1cccc(-c2noc(-c3nn(-c4cccc(F)c4)ccc3=O)n2)c1 |

| RP-LC retention time [s] | SMILES |
| --- | --- |
| 933 | O=C1NCCCCCN(C(=O)CC2CCCCC2)[C@@H]2C[C@@H](C(=O)N3CCc4ccccc4C3)C[C@H]12 |
| 696 | CC(C)C(=O)NCc1cnn(-c2ccc(C(=O)N(C)Cc3ccco3)cc2)c1 |
| 777 | CSc1ccc(-c2nc3ncccn3c2Nc2ccccc2)cc1 |
| 679 | Nc1ncnc(NC2CCCC2)c1[N+](=O)[O-] |
| 631 | COCCn1c(CC2CCN(C(=O)Nc3cccc(Cl)c3C)C2)nc2cccnc21 (centres undefined) |
| 1080 | Cc1oc(C(C)C)nc1C(=O)NCc1cccc(C(F)(F)F)c1 |
| 528 | CN1CCN(S(=O)(=O)c2ccc(C#N)cc2)CC1c1ccccc1 (centres undefined) |
| 858 | CCCN1C(=O)c2c(C(=O)NCc3cccc(Cl)c3)ncn2CC1(C)C(=O)NC1CCCC1 (centres undefined) |
| 1210 | Cc1ccc(-n2cc(C(=O)OCC(=O)OC(C)(C)C)c3ccccc3c2=O)cc1 |
| 875 | Cc1noc(C)c1C1CCCN1C(=O)c1cnn2c(C(F)(F)F)cc(-c3ccco3)nc12 (centres undefined) |
| 830 | Cc1ccc(C)c(NC(=O)c2csc(-c3ccc(N4CCCC4)nc3)n2)c1 |
| 799 | O=C(CSc1cn(CC(=O)N2CCCCCC2)c2ccccc12)NCC1CCCO1 (centres undefined) |
| 664 | CCC(C)(C)C(=O)NC1CCN(c2cnn(CC3CC3)c(=O)c2)CC1 |
| 838 | C=CCNC(=O)CN1C(=O)C2CCCCN2c2ccc(C(=O)N3CCCC3)cc21 (centres undefined) |
| 784 | O=C(CN1C(=O)C(C(=O)N2CCCCCC2)Sc2ccccc21)N1CCN(c2ncccn2)CC1 (centres undefined) |
| 922 | Cc1nc(-c2ccc3c(c2)n(CC(=O)N2CCc4ccccc42)c(=O)n3C(C)C)no1 |
| 765 | Cc1noc(C)c1S(=O)(=O)N1C[C@@H](F)C[C@H]1C(=O)N1CCCCC1 |
| 864 | CCOc1ccc(N2C(=O)N[C@@H]3C[C@]2(C)Oc2ccc(OC)cc23)cc1 |
| 557 | CCC(=O)NCc1nc2c(n1C)CN(S(=O)(=O)c1cc(F)ccc1F)CC2 |
| 1280 | COc1cc(OC)cc(-c2noc(-c3nnn(Cc4nc(-c5cccc(C)c5)oc4C)c3C)n2)c1 |
| 834 | CCOC(=O)CCC(=O)Nc1ccc(S(=O)(=O)N2CCc3ccccc32)cc1 |
| 774 | CCc1noc(NC(C)=O)c1-c1ccc(OC)c(S(=O)(=O)Nc2cc(OC)ccc2OC)c1 |

| RP-LC retention time [s] | SMILES |
| --- | --- |
| 959 | Cc1cccc(NC(=O)N2CCCC(C)(C(=O)NCc3ccccc3C)C2)c1 (centres undefined) |
| 986 | CCS(=O)(=O)N1CCCc2cc(C(=O)Nc3ccccc3Br)ccc21 |
| 760 | COc1cccc(-c2cc(C(N)=O)c3ccccc3n2)c1 |
| 806 | CN1C(=O)c2cc(C(=O)NCCc3c[nH]c4ccccc34)nn2CC1(C)C(=O)NC1CCCCC1 (centres undefined) |
| 972 | CCS(=O)(=O)c1nc2ccc(NS(=O)(=O)c3cc(C)c(C)cc3C)cc2s1 |
| 654 | CN1CCCn2nc(C3CCN(C(=O)CC(C)(C)C)CC3)cc2C1=O |
| 1150 | CCCCn1c(=O)c2ccccc2n(Cc2nc(-c3cccc(OCC)c3)no2)c1=O |
| 774 | O=C(c1ccoc1)N1CCC2(CC1)N=C(c1ccc(Cl)cc1)NO2 |
| 654 | Cn1c(C2CCN(C(=O)Nc3ccccc3Br)CC2)cc(=O)n2nccc12 |
| 680 | O=C(CSc1ccc(N2CCCC(C(=O)NC3CC3)C2)nn1)Nc1ccc(F)c(F)c1 (centres undefined) |
| 568 | COc1nc(N)nc2c1ncn2[C@@H]1O[C@H](CO)[C@@H](O)[C@@H]1O |
| 1050 | CCc1ccc(NC(=O)Cn2c(=O)cc(-c3nc(C4CC4)no3)c3ccccc32)cc1 |
| 721 | CN1C(=O)COc2cc(-c3noc(C(=O)NCCc4ccc(S(N)(=O)=O)cc4)n3)ccc21 |
| 947 | CCn1ccc2oc(C)c(C(=O)NCc3cccc(F)c3)c2c1=O |
| 608 | Cc1nc([C@@H]2CN(C(=O)c3ccc(Cl)s3)C[C@H]2C(N)=O)n[nH]1 |
| 659 | O=C(Nc1cccc(-c2ccc(N3CCOCC3)nn2)c1)Nc1ccc2c(c1)OCCO2 |
| 658 | COc1ccc(S(=O)(=O)NC2CCN(C(=O)c3ccnn3C)CC2)cc1 |
| 627 | C[C@@H](NC(=O)c1ccc(F)cc1)C(=O)NCc1cscn1 |
| 900 | CC(C)Oc1ccc(CNC(=O)C2CCCN(c3ccc(=O)n(-c4ccc(F)cc4)n3)C2)cc1 (centres undefined) |
| 943 | COC(=O)c1cc2c(cc1NC(=O)C1CCCN(c3ncnc4c3nc3n4CCCCC3)C1)OCO2 (centres undefined) |
| 841 | CN1C(=O)COc2cc(-c3noc(C(=O)N4CCCCC4)n3)ccc21 |
| 881 | COc1ccc(S(=O)(=O)N2CCC(n3cnc4c(C)cccc4c3=O)CC2)cc1OC |

| SMILES | RP-LC retention time [s] |
| --- | --- |
| COc1ccccc1N1CCNCC1 | 627 |
